Entries after “also recorded” stand apart in the source; their conditions may differ.
Tests used:
healthy subjects [1] = assay: Alteration of mind and mystical-type effects on 5D-ASC and MEQ questionnaires; type: in vivo, human; details: for acute mystical-type experiences on the 5D-ASC scale: 24 subjects
Procedure: (§1) Study design: The present study compares the acute subjective, physiological and endocrine effects of S-MDMA (125 mg), R-MDMA (125 and 250 mg), MDMA (125 mg) using a placebo-controlled double-blind 5-period cross-over design in 24 healthy subjects. Conditions are 1.) R-MDMA 125 mg, 2). R-MDMA 250 mg, 3) S-MDMA 125 mg, 4) MDMA 125 mg, 5) placebo. Treatment order is counterbalanced. Washout periods between substance administrations are at least 10 days. Study days include a 10-hour study session with a subsequent single measurement (short visit) the next morning (24 hours after drug administration).
(§2) Psychometric assessments: Visual Analog Scale (VAS): VASs is repeatedly used to assess subjective alterations in consciousness over time. Single scales are presented as 100 mm horizontal lines marked with “not at all” on the left and “extremely” on the right. The following VAS items are used: “any drug effect”, “good drug effect”, “bad drug effect”, “stimulated”, “liking”, “happy”, “content”, “talkative”, “open”, “trust”, “feeling close to others”, “anxiety”, “alteration of vision”, “alterations of hearing”, “sounds seem to influence what I see”, “alteration of sense of time”, “the boundaries between myself and my surroundings seem to blur”, “want to be with other people”, and “want to be alone”. Scales are administered before and repeatedly after substance administration and take approximately 2 minutes to fill out. The maximal ratings (Emax, 0-100) and areas under the effect-time curve (AUEC) are defined for each VAS and Emax and AUEC values compared between treatments using analysis of variance. 5-Dimensions of Altered States of Consciousness (5D-ASC): The 5 Dimensions of Altered States of Consciousness (5D-ASC) Scale is a questionnaire containing visual analog scales for 94 items (Studerus et al., 2010). The instrument contains five scales assessing mood, anxiety, derealization, depersonalization, changes in perception, auditory alterations, and reduced vigilance. The scale is well-validated (Studerus et al., 2010) and used internationally to evaluate effects of many other psychoactive substances. The overall psychedelic experience is reflected by the total […] score. Each item of the scale is scored on a 0-100 mm VAS. The attribution of the individual items to the subscales of the 5D-ASC is analyzed according to (Studerus et al., 2010). The 5D-ASC scale is administered once at the end of the session and subjects are instructed to retrospectively rate peak alterations that have been experienced during the study session. Adiective Mood Rating Scale (AMRS): The Adjective Mood Rating Scale (AMRS or EWL60S) is a 60-item Likert scale that allows repeated assessment of mood in 6 dimensions: Activation, inactivation, well-being, anxiety/depressed mood, extra- and introversion, and emotional excitability. The German EWL60S version is used. The AMRS consists of subscales measuring “activation,” “positive mood,” “extraversion,” “introversion,” “inactivation,” and “emotional excitability. The scale has previously been used to evaluate effects of many other psychoactive substances. Emax and AUEC scores will be defined for each subscale and compared between treatments using analysis of variance. The AMRS is administered repeatedly throughout the study session and once 3 days after each session. States of Consciousness Questionnaire (SCQ): In the SCQ, 100-items are rated on a six-point scale. Forty-three items embedded into this questionnaire comprise the Mystical Experience Questionnaire (MEQ) (MacLean et al., 2011) which is sensitive to the effects of psychedelic substances such as LSD. […]

healthy subjects [2] = assay: Effects on mood on the Adjective Mood Rating Scale (AMRS); type: in vivo, human
Procedure: as §1, §2

healthy subjects [3] = assay: Autonomic effects (blood pressure, heart rate, body temperature); type: in vivo, human
Procedure: as §1
Autonomic measures: Blood pressure, heart rate, and body temperature are recorded at baseline and repeatedly throughout the session. Blood pressure (systolic and diastolic) and heart rate are measured with an automatic oscillometric device. Body temperature is measured with an ear thermometer. Emax is determined for each of the measures and for each study session. These Emax values are then compared between drug conditions using analysis of variance.

healthy subjects [4] = assay: Adverse effects (List of Complaints); type: in vivo, human; details: for adverse effects 24 to 72 hours after substance administration: 125 mg, compared with placebo
Procedure: as §1
Adverse effects (list of complaints): The list of complaints (LC) consists of 66 items offering a global score measuring physical and general discomfort (Zerssen, 1976). The LC is administered before (baseline), at the end of the session to cover effects from 0-9 hours and 24 hours after substance administration to cover aftereffects from 9-24 hours. To assess adverse effects after 24 hours, subjects fill out an additional LC 3 days after the test session, covering adverse effects from 24-72 hours. Subjects are additionally be asked to report any adverse events during the sessions or/and between study sessions as assessed at the beginning of the next session and at the EOS visit. Global LC scores are summed up and compared between treatments using analysis of variance.

healthy subjects [5] = assay: Mood after effects day 1-3 (BDI score, SCL-90-R GSI score); type: in vivo, human
Procedure: as §1
Psychometric assessments: Visual Analog Scale (VAS): VASs is repeatedly used to assess subjective alterations in consciousness over time. Single scales are presented as 100 mm horizontal lines marked with “not at all” on the left and “extremely” on the right. […] Each item of the scale is scored on a 0-100 mm VAS. The attribution of the individual items to the subscales of the 5D-ASC is analyzed according to (Studerus et al., 2010). […]

healthy subjects [6] = assay: Connectedness subscale of the PES questionnaire; type: in vivo, human
healthy subjects [7] = assay: Clinical cross-over study, overall comparison of the substances; type: in vivo, human; details: for dose of more equivalent strength to 125 mg (±)-MDMA: based on the results of the present study; for acute subjective effects and adverse effects: conclusion over the doses tested
Procedure: as §1

[8] = mice; cited from earlier work
mice = details: cited from earlier work
model of PTSD = details: cited from earlier work
[9] = 125 mg, compared with placebo (and 125 mg R-MDMA)

CN[C@@H](C)Cc1ccc2c(c1)OCO2 [S-MDMA, S(+)-MDMA]
acute mystical-type experiences on the 5D-ASC scale (healthy subjects [1]; 125 mg): comparable effects with no significant differences
psychedelic effects on the 5D-ASC and the MEQ questionnaires (healthy subjects [1]; [9]): comparable and overall greater psychedelic effects
effects on the AMRS (healthy subjects [2]; 125 mg): comparable effects
AMRS “Emotional excitation” (healthy subjects [2]; 125 mg S-MDMA versus both doses of R-MDMA): more
body temperature (healthy subjects [3]; 125 mg): increased similarly; also recorded: increased body temperature only moderately
increases in blood pressure (healthy subjects [3]; 125 mg S-MDMA versus (±)-MDMA and both doses of R-MDMA): higher increases
heart rate (healthy subjects [3]; 125 mg S-MDMA versus the other substance conditions): only significantly higher compared with 125 mg of R-MDMA
heart rate (healthy subjects [3]; 125 mg, versus placebo): increase heart rate comparably and more than with placebo
adverse effects 24 to 72 hours after substance administration (healthy subjects [4]): only increased; also recorded: increased number of adverse effects
BDI and GSI scores (healthy subjects [5]; 125 mg, one to three days after substance administration): only increased
ratings of connectedness, difference between conditions (healthy subjects [6]; 125 mg): no difference
dose of more equivalent strength to 125 mg (±)-MDMA (healthy subjects [7]): 100 mg
acute subjective effects and adverse effects (healthy subjects [7]): overall comparable
enantiomer converted to the other enantiomer after administration [8]: 9.9%
onset of interoceptive effects (mice; compared with R-MDMA): faster
conditioned fear during extinction training (model of PTSD): reduced conditioned fear during extinction training but not thereafter

CN[C@H](C)Cc1ccc2c(c1)OCO2 [R-MDMA, R(−)-MDMA]
acute mystical-type experiences on the 5D-ASC scale (healthy subjects [1]; 125 mg): only significantly induced mystical-type effects on the 5D-ASC total score and the “Reductions of vigilance” scale
psychedelic effects on the 5D-ASC and the MEQ questionnaires (healthy subjects [1]; [9]): only significantly induced the 5D-ASC total score and the dimension “Reductions of vigilance” on the 5D-ASC and “positive mood”, “Ineffability” and the MEQ30 total score
acute mystical-type experiences on the 5D-ASC scale (healthy subjects [1]; 250 mg): comparable effects with no significant differences
psychedelic effects on the 5D-ASC and the MEQ questionnaires (healthy subjects [1]; 250 mg, compared with placebo and 125 mg R-MDMA): comparable and overall greater psychedelic effects
effects on the AMRS (healthy subjects [2]; 125 mg): comparable effects
AMRS “Extraversion” (healthy subjects [2]; 125 mg R-MDMA versus (±)-MDMA and S-MDMA): less
effects on the AMRS (healthy subjects [2]; 250 mg): comparable effects
AMRS “Introversion” (healthy subjects [2]; 250 mg R-MDMA versus (±)-MDMA): significant more
body temperature (healthy subjects [3]; 125 mg): did not increase body temperature significantly compared to placebo
body temperature (healthy subjects [3]; 250 mg): increased similarly; also recorded: increased body temperature as much as (±)-MDMA and S-MDMA; also recorded: increased body temperature only moderately
heart rate (healthy subjects [3]; 250 mg, versus placebo): increase heart rate comparably and more than with placebo
adverse effects 24 to 72 hours after substance administration (healthy subjects [4]): only increased; also recorded: increased number of adverse effects
overall adverse effects (healthy subjects [4]; R-MDMA versus (±)-MDMA): it does not seem that R-MDMA produces overall less adverse effects
mood after administration (healthy subjects [5]; R-MDMA compared with S-MDMA): did not depress mood after administration
ratings of connectedness, difference between conditions (healthy subjects [6]; 250 mg): no difference
cardio and psychostimulant effects / properties (healthy subjects [7]; R-MDMA (125 and 250 mg) compared with S-MDMA): lower cardio and psychostimulant effects; also recorded: less cardiostimulant and psychostimulant properties
dose of more equivalent strength to 125 mg (±)-MDMA (healthy subjects [7]): 300 mg
acute subjective effects and adverse effects (healthy subjects [7]): overall comparable
effect on social interaction and connectedness (healthy subjects [7]; within the dose range tested (125 and 250 mg)): less pronounced
enantiomer converted to the other enantiomer after administration [8]: 3.5%
duration of discriminative stimulus effects (mice): shortest
conditioned fear when retention of extinction was assessed (model of PTSD): reduced conditioned fear

From patent US20240307345A1, “R-MDMA and S-MDMA TO ASSIST PSYCHOTHERAPY” (Universitatsspital Basel, priority 2022, published 2024)
